How the values were obtained:
[1] = system: PSTPIP tyrosine phosphorylation; test: Tyrosine phosphorylation of endogenous PSTPIP in Baf3 cells; format: cell-based, murine
Experimental: Baf3 cells were lysed in 1% Triton, 50 mM HEPES. 10% glycerol and 5 mM EDTA containing 1 μg/ml aprotinin, PMSF, leupeptin and pepstatin were 1 mM Sodium Vanadate and 10 mM Iodoacetic acid. Cells were treated with 0.1 mM Pervanadate for 4 hours before lysis. Immunoprecipitations were performed in the vanadate-containing lysis buffer using 1 μg/ml anti-PSTPIP polyclonal antibody and 400 μg of lysate protein at 4° C. overnight. Western blots were performed using 1 μg/ml affinity purified anti-PSTPIP or 1:5000 dilution of commercial 4G10 anti-phosphotyrosine monoclonal (Upstate Biotech). Signal was detected by HRPO-ECL reagents (Pierce). The C221-S mutant was as previously described (Cheng et al., (1996) supra). The PTP HSCF D197-A mutant was generated using PCR. Mutagenesis primer D197A.F ([…]) (SEQ ID NO:24), corresponding to nucleotide 591, and primer D197A.R ([…]) (SEQ ID NO:25) which corresponds to the stop codon, were used in PCR to generate a fragment that could be cut with Mscl and XbaI. pRK.HA.38 WT, a plasmid which encoded the wild type enzyme under the control of the cytomegalovirus promoter (Cheng et al., (1996) supra), was digested with Clal and Mscl and the resulting 600 bp fragment was ligated with the Mscl-Xbal PCR fragment into the Clal and Xbal sites of the pRK.tkneo. […]

[2] = target: T1, interaction between PTP HSCF and PSTPIP (Mus musculus, UniProt P97814); test: Peptide inhibition of in vitro binding of PSTPIP to GST-PTP HSCF fusion; parameters: species or system murine; settings: GST-PST-rich+CTH PTP HSCF precipitating in vitro translated PSTPIP, varying amounts of peptide
T1 construct: made in house; host or cells: GST fusion: E. coli DH5-alpha; PSTPIP: in vitro transcription/translation in rabbit reticulocyte lysate (Promega TnT)
T1 sequence (P97814 1-415): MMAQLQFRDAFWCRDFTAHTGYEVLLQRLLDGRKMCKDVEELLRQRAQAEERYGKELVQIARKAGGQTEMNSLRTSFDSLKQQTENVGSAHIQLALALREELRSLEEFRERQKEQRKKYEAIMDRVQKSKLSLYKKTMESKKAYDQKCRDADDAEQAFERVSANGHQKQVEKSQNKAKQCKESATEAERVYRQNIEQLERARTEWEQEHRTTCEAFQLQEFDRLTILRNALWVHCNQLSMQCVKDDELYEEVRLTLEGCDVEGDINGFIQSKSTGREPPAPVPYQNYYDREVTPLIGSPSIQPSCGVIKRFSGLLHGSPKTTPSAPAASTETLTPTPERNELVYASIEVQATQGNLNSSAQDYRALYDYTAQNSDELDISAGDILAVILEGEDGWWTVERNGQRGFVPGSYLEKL
Experimental: The binding was carried out according to the method of Wong and Johnson (Wong et al., J. Biol. Chem. 271(35):20981-20984 (1996)). Briefly, 1 μg of plasmid with either the PSTPIP protein or PTP HSCF under the control of the Sp6 promoter was in vitro transcribed/translated using the Promega™ TnT Rabbit Reticulocyte™ system. Samples were diluted in 50 mM HEPES, pH 7.2, 1% triton X 100, 10% glycerol, 100 mM NaCl, 5 mM EDTA and 2 μg/ml each of leupeptin, pepstatin, aprotinin, and PMSF. […] This was reacted for 1 hour at 4° C. and then the resin washed 6 times in HEPES/Triton binding buffer before SDS gel electrophoresis. The peptides were synthesized on an automated Milligen 9050 Peptide Synthesizer using standard solid phase chemistry with FMOC protected amino acids on a p-alkoxybenzyl alcohol resin. Dried peptides were re-suspended in the HEPES/Triton Binding buffer at a concentration of 10 mg/ml. Peptide inhibition was performed by adding the peptide first to the in vitro translation product and then the GST-fusion followed by the GSH-Sepharose. […]
In vitro binding analyses between various PTP HSCF and PST PIP constructs were performed as previously described (Spencer et al, (1997), supra). […] Samples were than reacted with GST fusion proteins at various concentrations, and the bound proteins were centrifuged using glutathione-sepharose beads and analyzed on SDS polyacrylamide gels. […]

Row | Compound | tyrosine phosphorylation of endogenous PSTPIP [1] | blocking of the PTP HSCF-PSTPIP interaction by peptide [2]
1 | [O]=[V]([O-])([O-])[O-] [vanadate] | significantly enhanced | –
2 | GGVLRSISVPAPPTLPMADT [PXXP-CONTROL] | – | completely unable to block the interaction

From patent US6887705B1, “Tyrosine phosphorylated cleavage furrow-associated proteins (PSTPIPs)” (Genentech, Inc., priority 1997, dated 2005)
